In BindingDB's records for doi:10.1016/s0960-894x(01)00313-4 (Cor Therapeutics, 2001):

The compounds below were run against P2Y purinoceptor 12 (Homo sapiens, UniProt Q9H244) (assay: ChEBML_162514).
Text: Ability to displace [3H]2-MeS-ADP from human Purinergic receptor P2Y12

Chain of P2Y purinoceptor 12 (Q9H244 whole entry): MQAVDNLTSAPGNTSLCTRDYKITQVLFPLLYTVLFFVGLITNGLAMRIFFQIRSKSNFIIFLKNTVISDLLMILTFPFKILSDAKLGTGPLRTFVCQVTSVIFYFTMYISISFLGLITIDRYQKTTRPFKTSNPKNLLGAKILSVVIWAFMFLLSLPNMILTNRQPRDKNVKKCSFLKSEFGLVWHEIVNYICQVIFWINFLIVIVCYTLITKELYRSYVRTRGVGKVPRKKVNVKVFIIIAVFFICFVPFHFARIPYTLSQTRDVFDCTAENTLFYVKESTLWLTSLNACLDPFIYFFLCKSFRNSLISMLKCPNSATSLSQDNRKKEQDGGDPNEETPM

First: O=C(CS(=O)(=O)Nc1nc2ccc(C3CCCCC3)cc2s1)C1C(=O)N2C(=NS1(=O)=O)Sc1cc(C3CCCCC3)ccc12 (stereo unspecified) [2-(7-Cyclohexyl-4-hydroxy-2,2-dioxo-2H-2lambda*6*,9-dithia-1,4a-diaza-fluoren-3-yl)-2-oxo-ethanesulfonic acid (6-cyclohexyl-benzothiazol-2-yl)-amide]
Second: O=C(CS(=O)(=O)Nc1nc2ccc(Cl)cc2s1)C1C(=O)N2C(=NS1(=O)=O)Sc1cc(Cl)ccc12 (stereo unspecified) [2-(7-Chloro-4-hydroxy-2,2-dioxo-2H-2lambda*6*,9-dithia-1,4a-diaza-fluoren-3-yl)-2-oxo-ethanesulfonic acid (6-chloro-benzothiazol-2-yl)-amide]
The IC50 of the first is higher: over 120 µM for the first, 35 µM for the second. The second is the more potent here.

`O=C1CS(=O)(=O)N=C2Sc3cc(OC(F)(F)F)ccc3N12` [2,2-Dioxo-7-trifluoromethoxy-2H-2lambda*6*,9-dithia-1,4a-diaza-fluoren-4-ol] and `O=C(CS(=O)(=O)Nc1nc2ccc(Oc3ccccc3)cc2s1)C1C(=O)N2C(=NS1(=O)=O)Sc1cc(Oc3ccccc3)ccc12` (stereo unspecified) [2-(4-Hydroxy-2,2-dioxo-7-phenoxy-2H-2lambda*6*,9-dithia-1,4a-diaza-fluoren-3-yl)-2-oxo-ethanesulfonic acid (6-phenoxy-benzothiazol-2-yl)-amide] cannot be ordered by IC50: over 120 µM for the first, over 50 µM for the second.

Going from `O=C(CS(=O)(=O)Nc1nc2ccc(-c3ccccc3)cc2s1)C1C(=O)N2C(=NS1(=O)=O)Sc1cc(-c3ccccc3)ccc12` (stereo unspecified) [2-(4-Hydroxy-2,2-dioxo-7-phenyl-2H-2lambda*6*,9-dithia-1,4a-diaza-fluoren-3-yl)-2-oxo-ethanesulfonic acid (6-phenyl-benzothiazol-2-yl)-amide] to `O=C(CS(=O)(=O)Nc1nc2ccc([N+](=O)[O-])cc2s1)C1=C([O-])[n+]2c(sc3cc([N+](=O)[O-])ccc32)NS1(=O)=O` [2-(4-Hydroxy-7-nitro-2,2-dioxo-2H-2lambda*6*,9-dithia-1,4a-diaza-fluoren-3-yl)-2-oxo-ethanesulfonic acid (6-nitro-benzothiazol-2-yl)-amide], the IC50 falls from over 50 µM to 35 µM. The second is the more potent here.
